Reference: PubChem BioAssay (NCI)
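The concentration for 50% growth inhibition is given as GI50. TGI denotes the concentration required for complete inhibition of growth.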

Columns and labels:
Experiment in all cases: growth of human tumour cells (NCI), 384-well format
U251 glioblastoma = tested on: U251 glioblastoma
MDA-MB-468 breast = tested on: MDA-MB-468 breast
LOX IMVI melanoma = tested on: LOX IMVI melanoma
OVCAR-4 ovarian = tested on: OVCAR-4 ovarian
BT-549 breast = tested on: BT-549 breast
COLO 205 colon = tested on: COLO 205 colon
HL-60(TB) leukemia = tested on: HL-60(TB) leukemia
SNB-19 CNS = tested on: SNB-19 CNS
ACHN renal = tested on: ACHN renal
T-47D breast = tested on: T-47D breast
CAKI-1 renal = tested on: CAKI-1 renal
NCI-H322M lung = tested on: NCI-H322M lung
IGROV1 ovarian = tested on: IGROV1 ovarian

CS(=O)(=O)c1ccc(C(=O)Nc2ccc(Cl)c(-c3ccccn3)c2)c(Cl)c1
GI50 (U251 glioblastoma): 49.5 µM | TGI (U251 glioblastoma): > 100 µM | GI50 (MDA-MB-468 breast): 22.2 µM | TGI (MDA-MB-468 breast): 46.7 µM | GI50 (LOX IMVI melanoma): 47.2 µM | TGI (LOX IMVI melanoma): > 100 µM | GI50 (OVCAR-4 ovarian): 32.6 µM | TGI (OVCAR-4 ovarian): > 84.5 µM | GI50 (BT-549 breast): 25.1 µM | TGI (BT-549 breast): 76.9 µM | GI50 (COLO 205 colon): 40.3 µM | TGI (COLO 205 colon): > 100 µM | GI50 (HL-60(TB) leukemia): 19.6 µM | TGI (HL-60(TB) leukemia): 49.1 µM | GI50 (SNB-19 CNS): > 64.8 µM | TGI (SNB-19 CNS): > 100 µM | GI50 (ACHN renal): 35.6 µM | TGI (ACHN renal): > 81.7 µM | GI50 (T-47D breast): 21.4 µM | TGI (T-47D breast): 59.7 µM | GI50 (CAKI-1 renal): 36.6 µM | TGI (CAKI-1 renal): > 83.8 µM | GI50 (NCI-H322M lung): 67.2 µM | TGI (NCI-H322M lung): > 100 µM | GI50 (IGROV1 ovarian): 56.6 µM | TGI (IGROV1 ovarian): > 100 µM
